The values that follow come from patent US11981658B2, “Substituted aminopyridine compounds as EGFR inhibitors” (YUHAN CORPORATION, priority 2021, dated 2024).

The target of one test is EGFR Del19/C797S (Homo sapiens, UniProt P00533, C797S/DEL746-750). Nature of the test: Biochemical EGFR kinase inhibition assay (Lance Ultra TR-FRET), double mutant del19/C797S. Summed up: (§1)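 Step 1: compound in kinase buffer, 0.003–10 μM. Step 2: kinase reaction 1 h at room temperature. Step 4: TR-FRET read at 615/665 nm; IC50 calculated.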
On the technique in general: TR-FRET usually uses a lanthanide donor and a delayed reading to cut background.

For another test, the target named is EGFR L858R/T790M/C797S (Homo sapiens, UniProt P00533, C797S/L858R/T790M). The experiment in a line: Biochemical EGFR kinase inhibition assay (Lance Ultra TR-FRET), triple mutant L858R/T790M/C797S. The gist of the method: as §1
The target of another test is EGFR wildtype (WT) (Homo sapiens, UniProt P00533). The experiment in a line: Biochemical EGFR kinase inhibition assay (Lance Ultra TR-FRET), wildtype. The gist of the method: as §1
The target of another test is EGFR L858R/C797S (Homo sapiens, UniProt P00533, C797S/L858R). The experiment in a line: Biochemical EGFR kinase inhibition assay (Lance Ultra TR-FRET), double mutant L858R/C797S. Summed up:
as §1

In another test the target is EGFR Del19/T790M/C797S (Homo sapiens, UniProt P00533, C797S/DEL746-750/T790M). Nature of the test: Biochemical EGFR kinase inhibition assay (Lance Ultra TR-FRET), triple mutant del19/T790M/C797S. Summed up:
as §1

[1] abbreviates: IC50 Del19/C797S (nM), 100 μM ATP.
Where [2] appears, read: Km ATP, read-out: IC50 Del19/C797S (nM) Km ATP.
The mark [3] stands for this setting: IC50 L858R/T790M/C797S (nM), 100 μM ATP.
Where [4] appears, read: Km ATP, read-out: IC50 L858R/T790M/C797S (nM) Km ATP.
The mark [5] stands for this setting: Km ATP, read-out: IC50 WT (nM) Km ATP.
Where [6] appears, read: IC50 L858R/C797S (nM), 100 μM ATP.
The mark [7] stands for this setting: Km ATP, read-out: IC50 L858R/C797S (nM) Km ATP.
The mark [8] stands for this setting: IC50 Del19/T790M/C797S (nM), 100 μM ATP.
Where [9] appears, read: Km ATP, read-out: IC50 Del19/T790M/C797S (nM) Km ATP.
[10] abbreviates: ATP at Km, read-out: IC50 Del19/C797S (nM), Km ATP.
The mark [11] stands for this setting: ATP at Km, read-out: IC50 L858R/T790M/C797S (nM), Km ATP.
Setting [12] is: ATP at Km, read-out: IC50 WT (nM), Km ATP.
Setting [13] is: ATP at Km, read-out: IC50 L858R/C797S (nM), Km ATP.
The mark [14] stands for this setting: ATP at Km, read-out: IC50 Del19/T790M/C797S (nM), Km ATP.
The mark [15] stands for this setting: Km ATP, read-out: IC50 Del19/C797S (nM), Km ATP.
The mark [16] stands for this setting: Km ATP, read-out: IC50 L858R/T790M/C797S (nM), Km ATP.
Setting [17] is: Km ATP, read-out: IC50 WT (nM), Km ATP.
Setting [18] is: Km ATP, read-out: IC50 L858R/C797S (nM), Km ATP.
Where [19] appears, read: Km ATP, read-out: IC50 Del19/T790M/C797S (nM), Km ATP.

The structures appear in SMILES notation. Where two headings read alike, the source gives them in different places.

Sequence of EGFR Del19/C797S (P00533 with tags, fused parts or gaps DEL746-750/C797S): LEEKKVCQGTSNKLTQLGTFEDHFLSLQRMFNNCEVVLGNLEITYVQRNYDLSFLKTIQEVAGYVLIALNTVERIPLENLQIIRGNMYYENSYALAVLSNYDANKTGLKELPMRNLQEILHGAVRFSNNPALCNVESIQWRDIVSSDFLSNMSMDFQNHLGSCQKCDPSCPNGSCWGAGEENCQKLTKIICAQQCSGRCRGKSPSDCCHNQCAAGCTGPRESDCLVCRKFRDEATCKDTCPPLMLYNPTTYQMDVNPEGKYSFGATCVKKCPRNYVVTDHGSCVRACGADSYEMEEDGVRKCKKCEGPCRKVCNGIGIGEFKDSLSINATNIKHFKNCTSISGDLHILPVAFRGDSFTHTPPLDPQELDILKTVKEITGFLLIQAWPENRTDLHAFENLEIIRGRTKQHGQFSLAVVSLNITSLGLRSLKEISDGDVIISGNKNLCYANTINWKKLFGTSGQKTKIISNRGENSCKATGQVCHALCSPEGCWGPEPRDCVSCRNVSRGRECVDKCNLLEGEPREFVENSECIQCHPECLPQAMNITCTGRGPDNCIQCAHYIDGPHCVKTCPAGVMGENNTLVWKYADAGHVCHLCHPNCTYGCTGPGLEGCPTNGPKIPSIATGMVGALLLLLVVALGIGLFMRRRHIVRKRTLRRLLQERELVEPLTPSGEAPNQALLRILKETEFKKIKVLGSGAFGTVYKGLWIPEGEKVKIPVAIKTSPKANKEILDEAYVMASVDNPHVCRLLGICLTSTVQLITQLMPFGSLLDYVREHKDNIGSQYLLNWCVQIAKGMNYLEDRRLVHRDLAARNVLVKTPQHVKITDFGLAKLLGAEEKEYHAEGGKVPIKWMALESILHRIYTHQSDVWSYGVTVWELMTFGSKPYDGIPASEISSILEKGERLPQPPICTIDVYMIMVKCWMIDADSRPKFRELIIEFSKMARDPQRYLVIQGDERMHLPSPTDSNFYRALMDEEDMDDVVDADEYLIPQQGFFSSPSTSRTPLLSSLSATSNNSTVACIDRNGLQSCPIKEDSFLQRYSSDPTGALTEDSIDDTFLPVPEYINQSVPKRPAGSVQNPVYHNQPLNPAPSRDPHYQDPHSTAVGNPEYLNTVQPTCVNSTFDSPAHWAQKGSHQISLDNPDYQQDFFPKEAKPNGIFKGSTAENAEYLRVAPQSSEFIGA
Sequence of EGFR L858R/C797S (P00533 25-1210 C797S/L858R): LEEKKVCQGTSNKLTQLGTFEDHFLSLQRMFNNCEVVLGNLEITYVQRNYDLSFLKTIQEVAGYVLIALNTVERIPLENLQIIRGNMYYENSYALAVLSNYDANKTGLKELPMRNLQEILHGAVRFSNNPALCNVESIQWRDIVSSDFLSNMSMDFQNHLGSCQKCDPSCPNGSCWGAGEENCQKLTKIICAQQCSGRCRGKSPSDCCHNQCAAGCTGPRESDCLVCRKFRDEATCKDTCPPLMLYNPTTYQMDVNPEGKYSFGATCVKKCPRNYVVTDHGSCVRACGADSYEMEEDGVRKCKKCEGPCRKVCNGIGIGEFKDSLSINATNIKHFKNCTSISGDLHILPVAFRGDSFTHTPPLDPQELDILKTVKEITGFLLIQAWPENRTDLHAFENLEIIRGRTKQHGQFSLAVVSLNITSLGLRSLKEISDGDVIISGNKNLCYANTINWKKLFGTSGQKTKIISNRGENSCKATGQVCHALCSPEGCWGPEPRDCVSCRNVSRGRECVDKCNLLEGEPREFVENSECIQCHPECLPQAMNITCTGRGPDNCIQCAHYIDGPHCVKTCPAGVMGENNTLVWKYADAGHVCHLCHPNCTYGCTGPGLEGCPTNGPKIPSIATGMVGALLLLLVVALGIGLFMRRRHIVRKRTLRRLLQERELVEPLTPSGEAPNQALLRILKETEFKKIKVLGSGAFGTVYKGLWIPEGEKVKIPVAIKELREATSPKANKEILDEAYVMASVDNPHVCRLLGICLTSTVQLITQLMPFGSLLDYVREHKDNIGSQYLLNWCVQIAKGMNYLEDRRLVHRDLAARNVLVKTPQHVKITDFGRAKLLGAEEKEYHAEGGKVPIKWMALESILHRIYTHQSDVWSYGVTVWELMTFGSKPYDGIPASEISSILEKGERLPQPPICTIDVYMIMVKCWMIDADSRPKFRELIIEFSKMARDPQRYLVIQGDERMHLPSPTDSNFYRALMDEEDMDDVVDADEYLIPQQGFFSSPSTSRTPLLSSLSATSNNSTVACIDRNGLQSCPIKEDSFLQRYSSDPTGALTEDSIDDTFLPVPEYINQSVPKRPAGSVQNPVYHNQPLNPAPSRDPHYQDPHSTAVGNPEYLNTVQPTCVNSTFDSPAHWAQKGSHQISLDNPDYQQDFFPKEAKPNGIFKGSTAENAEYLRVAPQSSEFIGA
Sequence of EGFR wildtype (WT) (P00533 25-1210): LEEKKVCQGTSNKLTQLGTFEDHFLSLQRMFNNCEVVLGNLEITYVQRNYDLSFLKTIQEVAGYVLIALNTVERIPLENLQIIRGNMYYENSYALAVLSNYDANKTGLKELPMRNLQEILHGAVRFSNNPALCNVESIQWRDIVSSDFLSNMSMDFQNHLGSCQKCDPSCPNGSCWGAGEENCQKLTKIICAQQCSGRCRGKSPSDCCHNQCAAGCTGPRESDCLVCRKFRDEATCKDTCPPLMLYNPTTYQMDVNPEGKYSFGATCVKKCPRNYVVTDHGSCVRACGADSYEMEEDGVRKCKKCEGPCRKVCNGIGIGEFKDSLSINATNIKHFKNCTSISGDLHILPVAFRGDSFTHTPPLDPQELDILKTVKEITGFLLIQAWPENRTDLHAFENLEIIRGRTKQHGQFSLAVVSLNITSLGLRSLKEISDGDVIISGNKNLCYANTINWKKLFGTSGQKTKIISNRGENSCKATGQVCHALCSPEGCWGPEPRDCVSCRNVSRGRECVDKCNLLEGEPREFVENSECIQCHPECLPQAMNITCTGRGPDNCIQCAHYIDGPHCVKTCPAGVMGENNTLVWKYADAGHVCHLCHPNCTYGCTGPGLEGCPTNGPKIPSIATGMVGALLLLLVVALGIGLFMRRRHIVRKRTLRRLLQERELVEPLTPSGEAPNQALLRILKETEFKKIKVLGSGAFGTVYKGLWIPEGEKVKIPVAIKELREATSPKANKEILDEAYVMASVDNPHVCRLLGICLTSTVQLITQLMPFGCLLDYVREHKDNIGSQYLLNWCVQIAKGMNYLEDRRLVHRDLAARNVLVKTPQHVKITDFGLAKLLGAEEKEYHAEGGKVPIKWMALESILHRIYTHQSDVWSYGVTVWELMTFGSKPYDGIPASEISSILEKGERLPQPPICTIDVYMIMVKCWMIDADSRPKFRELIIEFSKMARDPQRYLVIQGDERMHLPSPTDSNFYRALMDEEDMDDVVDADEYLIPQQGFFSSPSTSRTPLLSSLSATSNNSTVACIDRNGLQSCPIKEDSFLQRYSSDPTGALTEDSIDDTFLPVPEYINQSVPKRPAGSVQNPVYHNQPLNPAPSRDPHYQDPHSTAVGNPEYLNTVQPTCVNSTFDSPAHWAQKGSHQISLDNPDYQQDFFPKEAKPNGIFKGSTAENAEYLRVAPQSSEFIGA
Sequence of EGFR Del19/T790M/C797S (P00533 with tags, fused parts or gaps DEL746-750/T790M/C797S): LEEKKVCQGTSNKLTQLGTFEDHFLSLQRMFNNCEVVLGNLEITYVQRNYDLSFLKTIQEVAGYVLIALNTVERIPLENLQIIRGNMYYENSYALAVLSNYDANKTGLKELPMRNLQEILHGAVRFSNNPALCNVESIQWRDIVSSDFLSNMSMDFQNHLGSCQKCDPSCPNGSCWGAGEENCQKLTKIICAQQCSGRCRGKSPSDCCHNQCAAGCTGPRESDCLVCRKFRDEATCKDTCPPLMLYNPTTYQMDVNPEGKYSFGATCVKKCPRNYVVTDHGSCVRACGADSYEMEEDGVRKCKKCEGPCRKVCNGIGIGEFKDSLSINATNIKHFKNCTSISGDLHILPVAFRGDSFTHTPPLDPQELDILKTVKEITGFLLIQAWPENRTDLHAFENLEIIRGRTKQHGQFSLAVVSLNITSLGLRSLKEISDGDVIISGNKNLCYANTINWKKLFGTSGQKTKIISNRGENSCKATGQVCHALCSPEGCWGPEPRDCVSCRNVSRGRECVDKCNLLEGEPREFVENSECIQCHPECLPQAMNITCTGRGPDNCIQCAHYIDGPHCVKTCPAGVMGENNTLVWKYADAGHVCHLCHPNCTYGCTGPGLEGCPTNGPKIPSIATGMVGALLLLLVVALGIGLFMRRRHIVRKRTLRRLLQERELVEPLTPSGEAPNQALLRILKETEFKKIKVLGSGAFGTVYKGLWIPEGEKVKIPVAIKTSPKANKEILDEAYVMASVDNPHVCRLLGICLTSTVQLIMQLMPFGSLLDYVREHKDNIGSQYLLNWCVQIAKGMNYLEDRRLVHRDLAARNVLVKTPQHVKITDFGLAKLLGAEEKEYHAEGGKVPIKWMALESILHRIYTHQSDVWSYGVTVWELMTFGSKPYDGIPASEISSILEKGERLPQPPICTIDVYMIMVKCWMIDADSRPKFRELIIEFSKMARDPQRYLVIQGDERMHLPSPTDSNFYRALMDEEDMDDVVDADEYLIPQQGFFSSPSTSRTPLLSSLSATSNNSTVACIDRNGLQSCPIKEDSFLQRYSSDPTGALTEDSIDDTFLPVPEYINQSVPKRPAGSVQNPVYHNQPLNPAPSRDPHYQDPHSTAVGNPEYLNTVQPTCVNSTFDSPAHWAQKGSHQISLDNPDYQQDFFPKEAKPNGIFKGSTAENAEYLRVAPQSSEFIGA

For the compound `O=S(=O)(C1CC1)n1cc(-c2nccc(Nc3cc(N[C@H]4CC[C@@H](O)CC4)c(C#Cc4cnn(C5CCOCC5)c4)cn3)n2)cn1` [Example 94, (1s,4s)-4-((2-((2-(1-(Cyclopropylsulfonyl)-1H-pyrazol-4-yl)pyrimidin-4-yl)amino)-5-((1-(tetrahydro-2H-pyran-4-yl)-1H-pyrazol-4-yl)ethynyl)pyridin-4-yl)amino)cyclohexan-1-ol], the IC50 on EGFR Del19/C797S (setting [1]) is 8.8 nM; at EGFR Del19/C797S (setting [2]), 6.7 nM; against EGFR L858R/T790M/C797S (setting [3]), 3.6 nM; at EGFR L858R/T790M/C797S (setting [4]) it was 1.4 nM; against EGFR wildtype (WT) (IC50 WT (nM), 100 μM ATP), above 10000 nM; on EGFR wildtype (WT) (setting [5]), 32.3 nM. Besides, the IC50 was determined as 30.5 nM on EGFR L858R/C797S (setting [6]), 4.3 nM at EGFR L858R/C797S (setting [7]), 2.1 nM at EGFR Del19/T790M/C797S (setting [8]) and 2 nM at EGFR Del19/T790M/C797S (setting [9]).
Consider `CC1(CO)CCN(c2cc(Nc3ccnc(-c4cnn(S(=O)(=O)C5CC5)c4)n3)ncc2C#CC2CCCCC2)CC1` [Example 252, (1-(5-(Cyclohexylethynyl)-2-((2-(1-(cyclopropylsulfonyl)-1H-pyrazol-4-yl)pyrimidin-4-yl)amino)pyridin-4-yl)-4-methylpiperidin-4-yl)methanol], for which the IC50 on EGFR Del19/C797S (setting [10]) is 35.9 nM; against EGFR Del19/C797S (setting [1]), 39.9 nM; at EGFR L858R/T790M/C797S (setting [11]), 4.3 nM; against EGFR L858R/T790M/C797S (setting [3]), 15.9 nM; on EGFR wildtype (WT) (setting [12]), 235 nM; against EGFR wildtype (WT) (IC50 WT (nM), 100 μM ATP) it was above 10000 nM. For the same compound, the IC50 on EGFR L858R/C797S (setting [13]) came out at 100 nM; against EGFR L858R/C797S (setting [6]), 2080 nM; at EGFR Del19/T790M/C797S (setting [14]), 8.5 nM; against EGFR Del19/T790M/C797S (setting [8]) it was 7.9 nM.
Turning to `CN(C)Cc1ccc(C#Cc2cnc(Nc3ccnc(-c4cnn(S(=O)(=O)C5CC5)c4)n3)cc2N2CCC(C)(CO)CC2)cc1` [Example 254, (1-(2-((2-(1-(Cyclopropylsulfonyl)-1H-pyrazol-4-yl)pyrimidin-4-yl)amino)-5-((4-((dimethylamino)methyl)phenyl)ethynyl)pyridin-4-yl)-4-methylpiperidin-4-yl)methanol], the IC50 on EGFR Del19/C797S (setting [10]) turned out to be 0.3 nM; against EGFR Del19/C797S (setting [1]) it was 0.4 nM; at EGFR L858R/T790M/C797S (setting [11]), 0.1 nM; on EGFR L858R/T790M/C797S (setting [3]), 0.2 nM; at EGFR wildtype (WT) (setting [12]) it was 0.9 nM; against EGFR wildtype (WT) (IC50 WT (nM), 100 μM ATP), 248 nM. Also, the IC50 came out at 2.1 nM at EGFR L858R/C797S (setting [13]), 1.3 nM against EGFR L858R/C797S (setting [6]), 0.1 nM on EGFR Del19/T790M/C797S (setting [14]) and 0.2 nM at EGFR Del19/T790M/C797S (setting [8]).
As for `CN(C)CC1(C)CCN(c2cc(Nc3ccnc(-c4cnn(S(=O)(=O)C5CC5)c4)n3)ncc2C#Cc2cnn(CC(F)F)c2)CC1` [Example 302, 2-(1-(Cyclopropylsulfonyl)-1H-pyrazol-4-yl)-N-(5-((1-(2,2-difluoroethyl)-1H-pyrazol-4-yl)ethynyl)-4-(4-((dimethylamino)methyl)-4-methylpiperidin-1-yl)pyridin-2-yl)pyrimidin-4-amine], the IC50 is 0.8 nM at EGFR Del19/C797S (setting [10]); 0.7 nM against EGFR Del19/C797S (setting [1]); 0.1 nM at EGFR L858R/T790M/C797S (setting [11]); 0.3 nM on EGFR L858R/T790M/C797S (setting [3]); 5 nM on EGFR wildtype (WT) (setting [12]); 2690 nM on EGFR wildtype (WT) (IC50 WT (nM), 100 μM ATP). Moreover, the IC50 came to 1.5 nM at EGFR L858R/C797S (setting [13]), 11.5 nM against EGFR L858R/C797S (setting [6]), 0.1 nM at EGFR Del19/T790M/C797S (setting [14]) and 0.3 nM on EGFR Del19/T790M/C797S (setting [8]).
As for `CN(C)CCNC1CCN(c2cc(Nc3ccnc(-c4cnn(S(=O)(=O)C5CC5)c4)n3)ncc2C#Cc2cnn(C)c2)CC1` [Example 133, N^1-(1-(2-((2-(1-(Cyclopropylsulfonyl)-1H-pyrazol-4-yl)pyrimidin-4-yl)amino)-5-((1-methyl-1H-pyrazol-4-yl)ethynyl)pyridin-4-yl)piperidin-4-yl)-N^2,N^2-dimethylethane-1,2-diamine], the IC50 stood at 2.4 nM against EGFR Del19/C797S (setting [1]); 0.4 nM against EGFR L858R/T790M/C797S (setting [3]); 3840 nM against EGFR wildtype (WT) (IC50 WT (nM), 100 μM ATP); 3.5 nM against EGFR L858R/C797S (setting [6]); 0.3 nM on EGFR Del19/T790M/C797S (setting [8]).
In the case of `O=S(=O)(C1CC1)n1cc(-c2nccc(Nc3cc(NC4CCC(O)CC4)c(C#CC4CCOC4C(F)(F)F)cn3)n2)cn1` [Example 420, (1s,4s)-4-((2-((2-(1-(Cyclopropylsulfonyl)-1H-pyrazol-4-yl)pyrimidin-4-yl)amino)-5-(((2R)-2-(trifluoromethyl)tetrahydrofuran-3-yl)ethynyl)pyridin-4-yl)amino)cyclohexan-1-ol], the IC50 on EGFR Del19/C797S (setting [1]) is 6.9 nM; at EGFR Del19/C797S (setting [15]), 6.4 nM; against EGFR L858R/T790M/C797S (setting [3]) it was 2.3 nM; on EGFR L858R/T790M/C797S (setting [16]), 0.5 nM; on EGFR wildtype (WT) (IC50 WT (nM), 100 μM ATP), above 10000 nM; on EGFR wildtype (WT) (setting [17]), 52.7 nM. The IC50 against EGFR L858R/C797S (setting [6]) was 119 nM; on EGFR L858R/C797S (setting [18]), 12.6 nM; against EGFR Del19/T790M/C797S (setting [8]), 1.3 nM; at EGFR Del19/T790M/C797S (setting [19]) it was 1.6 nM.
Take `CC1(CO)CCN(c2cc(Nc3ccnc(-c4cnn(S(=O)(=O)C5CC5)c4)n3)ncc2C#Cc2cnn(C3CCOCC3)c2)CC1` [Example 95, (1-(2-((2-(1-(Cyclopropylsulfonyl)-1H-pyrazol-4-yl)pyrimidin-4-yl)amino)-5-((1-(tetrahydro-2H-pyran-4-yl)-1H-pyrazol-4-yl)ethynyl)pyridin-4-yl)-4-methylpiperidin-4-yl)methanol]: the IC50 against EGFR Del19/C797S (setting [1]) turned out to be 2.3 nM; on EGFR Del19/C797S (setting [2]) it was 2.7 nM; on EGFR L858R/T790M/C797S (setting [3]), 2 nM; at EGFR L858R/T790M/C797S (setting [4]) it was 0.9 nM; on EGFR wildtype (WT) (IC50 WT (nM), 100 μM ATP), 1040 nM; on EGFR wildtype (WT) (setting [5]), 5 nM. Further, the IC50 on EGFR L858R/C797S (setting [6]) came to 4.1 nM; on EGFR L858R/C797S (setting [7]), 1.4 nM; against EGFR Del19/T790M/C797S (setting [8]) it was 1.6 nM; at EGFR Del19/T790M/C797S (setting [9]), 1.5 nM.
For the compound `CC1(CO)CCN(c2cc(Nc3ccnc(-c4cnn(S(=O)(=O)C5CC5)c4)n3)ncc2C#Cc2cnn(C(F)(F)F)c2)CC1` [Example 101, (1-(2-((2-(1-(Cyclopropylsulfonyl)-1H-pyrazol-4-yl)pyrimidin-4-yl)amino)-5-((1-(trifluoromethyl)-1H-pyrazol-4-yl)ethynyl)pyridin-4-yl)-4-methylpiperidin-4-yl)methanol], the IC50 was 7.9 nM on EGFR Del19/C797S (setting [1]); 4.3 nM at EGFR Del19/C797S (setting [2]); 4.8 nM against EGFR L858R/T790M/C797S (setting [3]); 2.4 nM at EGFR L858R/T790M/C797S (setting [4]); above 10000 nM against EGFR wildtype (WT) (IC50 WT (nM), 100 μM ATP); 32 nM on EGFR wildtype (WT) (setting [5]). In addition, the IC50 on EGFR L858R/C797S (setting [6]) was 104 nM; on EGFR L858R/C797S (setting [7]), 3 nM; at EGFR Del19/T790M/C797S (setting [8]), 3.2 nM; at EGFR Del19/T790M/C797S (setting [9]), 3.5 nM.
`O=S(=O)(C1CC1)n1cc(-c2nccc(Nc3cc(NC[C@H]4CC[C@H](CO)CC4)c(C#Cc4cnn(CCF)c4)cn3)n2)cn1` [Example 381, ((1 r,4r)-4-(((2-((2-(1-(Cyclopropylsulfonyl)-1H-pyrazol-4-yl)pyrimidin-4-yl)amino)-5-((1-(2-fluoroethyl)-1H-pyrazol-4-yl)ethynyl)pyridin-4-yl)amino)methyl)cyclohexyl)methanol]: the IC50 on EGFR Del19/C797S (setting [1]) was 75.5 nM; on EGFR Del19/C797S (setting [15]), 33.3 nM; at EGFR L858R/T790M/C797S (setting [3]) it was 7.9 nM; on EGFR L858R/T790M/C797S (setting [16]) it was 3.4 nM; against EGFR wildtype (WT) (IC50 WT (nM), 100 μM ATP), above 10000 nM; on EGFR wildtype (WT) (setting [17]), 226 nM. Besides, the IC50 on EGFR L858R/C797S (setting [6]) came out at 1290 nM; on EGFR L858R/C797S (setting [18]), 37.9 nM; on EGFR Del19/T790M/C797S (setting [8]), 3.1 nM; at EGFR Del19/T790M/C797S (setting [19]), 2.9 nM.
